Source: PubChem BioAssay AID1224920 (Broad Institute, 2016)
Values joined by “and” are separate entries in the source; they are usually repeats but may differ in a detail not shown here. Equal entries are not always repeated. Active and inactive are the calls of the source.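 How the source made its calls: active means IC50 no higher than ten times the top tested dose; inconclusive means flat fit with 30 to 70% inhibition, or poor fit; inactive means IC50 above ten times the top dose.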

System: Clostridium difficile clinical isolate growth, OD600, 24 h
Assay: growth modulation of Clostridium difficile isolate – OD600, 9-point, retest, dose response (AID 1224920);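 further: inhibitors lower culture turbidity so OD600 falls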

Row | Compound | IC50
1 | CCCNC(=O)C[C@@H]1CC[C@@H]2[C@H](COC[C@H](O)CN2C(=O)Nc2ccc(Cl)c(Cl)c2)O1 | 12 µM
2 | c1ccc(CN2C[C@@H]3N[C@H](C2)C3c2ccc(-c3ccccc3)cc2)cc1 (stereo not given in full) | 18.9 µM and 26.2 µM
3 | OC[C@H]1[C@@H](c2ccc(-c3cccc(F)c3)cc2)[C@@H]2CN(CCC(F)(F)F)CCCCN12 | 53.8 µM
4 | CC(C)CC#Cc1ccc([C@@H]2[C@H](CO)N3CCCCN(C(=O)Nc4ccccc4)C[C@@H]23)cc1 | 13.1 µM
5 | Cc1ccc(-c2ccc(C3[C@@H]4CN(Cc5cccc(F)c5)C[C@H]3N4)cc2)cc1 (stereo not given in full) | 2.8 µM and 12.6 µM
6 | O=C(C[C@H]1CC[C@H]2[C@@H](COC[C@H](O)CN2C(=O)Nc2ccc(Cl)c(Cl)c2)O1)NC1CCC1 | 3.65 µM
7 | O=C(Nc1ccccc1)N1CCCCN2[C@H](CO)[C@H](c3ccc(C#Cc4ccccc4)cc3)[C@H]2C1 | 9.4 µM
8 | Cc1ccc(-c2ccc(C3[C@H]4CNC[C@@H]3N4C(=O)Nc3ccc(F)cc3)cc2)cc1 (stereo not given in full) | 64.4 µM
9 | C(=C\c1ccc(C2[C@@H]3CN(Cc4ccc5c(c4)OCO5)C[C@H]2N3)cc1)/c1ccccc1 (stereo not given in full) | 6.94 µM and 6.61 µM
10 | COc1cccc(-c2ccc(C3[C@@H]4CN(S(=O)(=O)c5ccccc5C)C[C@H]3N4)cc2)c1 (stereo not given in full) | 29.1 µM
11 | O=C(Nc1ccc(F)cc1)N1C[C@@H]2N[C@H](C1)C2c1ccc(-c2ccccc2F)cc1 (stereo not given in full) | 36.7 µM and 57.5 µM
12 | COc1cccc(S(=O)(=O)N2C[C@@H]3N[C@H](C2)C3c2ccc(-c3cccc(C)c3)cc2)c1 (stereo not given in full) | 8.9 µM
13 | Cc1ccccc1-c1ccc(C2[C@@H]3CN(C(=O)NC4CCCCC4)C[C@H]2N3)cc1 (stereo not given in full) | 57.7 µM
14 | O=C(Nc1ccccc1)N1C[C@@H]2N[C@H](C1)[C@@H]2c1ccc(/C=C/c2ccccc2)cc1 | 13 µM
15 | O=C(NC[C@H]1N[C@H](CO)[C@@H]1c1ccc(C2=CCCC2)cc1)c1ccccc1 | 69.4 µM
16 | Cc1ccc(-c2ccc(C3[C@H]4CNC[C@@H]3N4S(=O)(=O)c3cccc(C)c3)cc2)cc1 (stereo not given in full) | 30.3 µM
17 | O=C(Nc1cccc(F)c1)N1CCCCN2[C@H](CO)[C@@H](c3ccc(-c4ccccc4F)cc3)[C@H]2C1 | 29.7 µM
18 | O=C(Nc1ccc(C(F)(F)F)cc1)N1C[C@@H]2N[C@H](C1)C2c1ccc(-c2cccc(F)c2)cc1 (stereo not given in full) | 2.63 µM and 2.5 µM
19 | COc1cc(CN2[C@@H]3CNC[C@H]2C3c2ccc(/C=C/c3ccccc3)cc2)cc(OC)c1 (stereo not given in full) | 12.2 µM
20 | CC(C)CC#Cc1ccc([C@H]2[C@H](CO)N3CCCCN(C(=O)Nc4ccccc4)C[C@@H]23)cc1 | 11.1 µM
21 | Cc1ccc(-c2ccc([C@@H]3[C@@H](CO)N4CCCCN(C(=O)c5ccc(F)cc5)C[C@H]34)cc2)cc1 | 34.4 µM
22 | O=C(Nc1cccc(Cl)c1)N1[C@@H]2CNC[C@H]1C2c1ccc(-c2ccccc2)cc1 (stereo not given in full) | 44.8 µM and 74.3 µM

Row | Compound | IC50
23 | COc1ccccc1CN1C[C@@H]2N[C@H](C1)C2c1ccc(/C=C/c2ccccc2)cc1 (stereo not given in full) | 3.7 µM and 19 µM
24 | O=C(Nc1ccc(C(F)(F)F)cc1)N1[C@@H]2CNC[C@H]1C2c1ccc(-c2ccccc2F)cc1 (stereo not given in full) | 10.3 µM and 83.8 µM
25 | COc1cccc(-c2ccc(C3[C@@H]4CN(Cc5cccc(F)c5)C[C@H]3N4)cc2)c1 (stereo not given in full) | 9.52 µM and 7.62 µM
26 | C[C@@H]1CN([C@@H](C)CO)C(=O)c2ccccc2-c2ccccc2CO[C@H]1CN(C)Cc1ccccc1C(F)(F)F | > 270 µM (inactive)
27 | O=C(C[C@@H]1CC[C@@H]2[C@H](COC[C@H](O)CN2C(=O)Nc2ccc(Cl)c(Cl)c2)O1)NC1CCC1 | 20.3 µM
28 | COc1cc(CN2C[C@@H]3N[C@H](C2)C3c2ccc(-c3ccccc3C)cc2)cc(OC)c1 (stereo not given in full) | 18.8 µM and 13.7 µM
29 | Cc1cccc(S(=O)(=O)N2C[C@@H]3N[C@H](C2)C3c2ccc(-c3ccccc3F)cc2)c1 (stereo not given in full) | 11.3 µM
30 | Fc1cccc(-c2ccc(C3[C@@H]4CN(Cc5ccccc5F)C[C@H]3N4)cc2)c1 (stereo not given in full) | 6.44 µM and 6.35 µM
31 | COc1cccc(CN2[C@@H]3CNC[C@H]2C3c2ccc(-c3ccccc3C)cc2)c1 (stereo not given in full) | 29.5 µM
32 | C/C=C/c1ccc(C2[C@@H]3CN(C(=O)Nc4ccc(C(F)(F)F)cc4)C[C@H]2N3)cc1 (stereo not given in full) | 13.7 µM and 10.6 µM
33 | COc1cccc(-c2ccc(C3[C@@H]4CN(C(=O)c5ccc(F)cc5)C[C@H]3N4)cc2)c1 (stereo not given in full) | 65.4 µM
34 | C/C=C/c1ccc(C2[C@@H]3CN(Cc4cccc(F)c4)C[C@H]2N3)cc1 (stereo not given in full) | 14.3 µM and 27.3 µM
35 | O=C(Nc1cccc(F)c1)N1CCCCN2[C@@H](CO)[C@H](c3ccc(-c4ccccc4F)cc3)[C@@H]2C1 | 33.6 µM
36 | Cc1ccccc1-c1ccc(C2[C@H]3CNC[C@@H]2N3C(=O)Nc2ccc(C(F)(F)F)cc2)cc1 (stereo not given in full) | 17.4 µM
37 | COc1ccccc1CN1CC[C@@H]2[C@H]1c1cc(C3=CCCCC3)ccc1N[C@@H]2CO | 74.5 µM
38 | O=C(C[C@H]1CC[C@@H]2[C@H](COC[C@@H](O)CN2C(=O)Nc2ccc(Cl)c(Cl)c2)O1)NCc1ccncc1 | 8.71 µM
39 | OC[C@@H]1[C@@H](c2ccc(C#CC3CCCC3)cc2)[C@H]2CN(CCC(F)(F)F)CCCCN12 | 26.9 µM
40 | CCCC#Cc1ccc([C@H]2[C@H](CO)N3CCCCN(S(=O)(=O)c4ccccc4C)C[C@@H]23)cc1 | > 240 µM (inactive)
41 | O=C(C[C@@H]1CC[C@@H]2[C@H](COC[C@H](O)CN2C(=O)Nc2ccc(C(F)(F)F)cc2)O1)NC1Cc2ccccc2C1 | 17.5 µM
42 | C(=C\c1ccc(C2[C@@H]3CN(Cc4cccnc4)C[C@H]2N3)cc1)/c1ccccc1 (stereo not given in full) | 52.1 µM and 56.8 µM
43 | COc1ccc(C#Cc2ccc([C@@H]3[C@H](CO)N4CCCCN(C(=O)Nc5ccc(F)cc5)C[C@@H]34)cc2)cc1 | 6.67 µM
44 | O=C(C1CCCCC1)N1CC[C@@H]2[C@H]1c1cc(C#Cc3ccc(F)cc3)ccc1N[C@@H]2CO | 45.2 µM

Row | Compound | IC50
45 | O=C(Nc1ccc(C(F)(F)F)cc1)N1C[C@@H]2N[C@H](C1)C2c1ccc(-c2ccccc2)cc1 (stereo not given in full) | 3.18 µM and 4.52 µM
46 | O=C(Nc1ccc(F)cc1)N1[C@@H]2CNC[C@H]1C2c1ccc(/C=C/c2ccccc2)cc1 (stereo not given in full) | 13.8 µM
47 | Cc1ccccc1-c1ccc([C@H]2[C@@H](CO)N3CCCCN(C(=O)Nc4ccc(F)cc4)C[C@H]23)cc1 | 27.4 µM
48 | Cc1ccccc1-c1ccc(C2[C@@H]3CN(C(=O)Cc4ccccc4)C[C@H]2N3)cc1 (stereo not given in full) | 62.1 µM and 68.3 µM
49 | Fc1ccc(-c2ccc(C3[C@@H]4CN(Cc5cccc(F)c5)C[C@H]3N4)cc2)cc1 (stereo not given in full) | 5.47 µM and 20.4 µM
50 | COc1cccc(C#Cc2ccc3c(c2)[C@@H]2[C@@H](CCN2C(=O)c2ccccc2F)[C@@H](CO)N3C)c1 | 27.7 µM
51 | C/C=C/c1ccc(C2[C@H]3CNC[C@@H]2N3C(=O)Nc2cccc(Cl)c2)cc1 (stereo not given in full) | 54.4 µM
52 | COc1cccc(-c2ccc(C3[C@@H]4CN(S(=O)(=O)c5ccccc5F)C[C@H]3N4)cc2)c1 (stereo not given in full) | 82 µM
53 | Cc1cccc(-c2ccc(C3[C@@H]4CN(C(=O)C5CCCCC5)C[C@H]3N4)cc2)c1 (stereo not given in full) | 26.6 µM
54 | COc1ccc(-c2ccc(C3[C@@H]4CN(Cc5cc(OC)cc(OC)c5)C[C@H]3N4)cc2)cc1 (stereo not given in full) | 6.55 µM and 25.8 µM
55 | COc1cccc(S(=O)(=O)N2C[C@@H]3N[C@H](C2)C3c2ccc(-c3ccccc3C)cc2)c1 (stereo not given in full) | 28.6 µM
56 | N#Cc1ccc(-c2ccc(C3[C@@H]4CN(Cc5ccccc5F)C[C@H]3N4)cc2)cc1 (stereo not given in full) | 35.8 µM and 26.1 µM
57 | N#Cc1ccc(-c2ccc([C@@H]3[C@H]4CNC[C@@H]3N4Cc3cc(F)ccc3F)cc2)cc1 | 58.8 µM
58 | Cc1ccccc1-c1ccc(C2[C@@H]3CN(C(=O)c4ccc(F)cc4)C[C@H]2N3)cc1 (stereo not given in full) | 64.6 µM
59 | COc1ccccc1NC(=O)N1CCCCN2[C@H](CO)[C@H](c3ccc(-c4cccc(C)c4)cc3)[C@H]2C1 | 10.3 µM
60 | COc1ccc(NC(=O)N2CCCCN3[C@H](CO)[C@@H](c4ccc(C#Cc5ccccc5)cc4)[C@H]3C2)cc1 | 25.7 µM
61 | CCCN(C)C[C@@H]1OCCCC[C@@H](C)Oc2ccc(NC(=O)Nc3ccc(C(F)(F)F)cc3)cc2C(=O)N([C@H](C)CO)C[C@H]1C | 31.6 µM
62 | Cc1cccc(S(=O)(=O)N2C[C@@H]3N[C@H](C2)C3c2ccc(-c3ccccc3C)cc2)c1 (stereo not given in full) | 12.5 µM
63 | Fc1ccc(-c2ccc(C3[C@@H]4CN(Cc5nccs5)C[C@H]3N4)cc2)cc1 (stereo not given in full) | 63 µM
64 | O=S(=O)(c1ccccc1)N1C[C@@H]2N[C@H](C1)C2c1ccc(-c2ccc(F)cc2)cc1 (stereo not given in full) | 51.4 µM
65 | Cc1ccccc1-c1ccc(C2[C@@H]3CN(Cc4cocn4)C[C@H]2N3)cc1 (stereo not given in full) | 45.5 µM
66 | O=C(NC1CCCCC1)N1C[C@@H]2N[C@H](C1)C2c1ccc(-c2cccc(F)c2)cc1 (stereo not given in full) | 61.2 µM

Row | Compound | IC50
67 | COc1cc(CN2C[C@@H]3N[C@H](C2)C3c2ccc(-c3ccc(C#N)cc3)cc2)cc(OC)c1 (stereo not given in full) | 38.7 µM
68 | OC[C@@H]1Nc2ccc(-c3ccc(F)cc3)cc2[C@@H]2[C@H]1CCN2Cc1ccc(F)cc1 | 82.4 µM
69 | O=C(C[C@@H]1CC[C@H]2[C@@H](COC[C@@H](O)CN2C(=O)Nc2cc(Cl)cc(Cl)c2)O1)N1CCOCC1 | 17.3 µM
70 | O=C(Nc1ccc(C(F)(F)F)cc1)N1[C@@H]2CNC[C@H]1C2c1ccc(-c2ccccc2)cc1 (stereo not given in full) | 18.2 µM and 28.6 µM
71 | O=S(=O)(c1ccc(F)cc1)N1C[C@@H]2N[C@H](C1)C2c1ccc(-c2ccc(F)cc2)cc1 (stereo not given in full) | 128 µM
72 | Fc1cccc(CN2C[C@@H]3N[C@H](C2)[C@@H]3c2ccc(-c3cccc(F)c3)cc2)c1 | 6.05 µM
73 | COc1cc(CN2[C@@H]3CNC[C@H]2C3c2ccc(-c3ccccc3C)cc2)cc(OC)c1 (stereo not given in full) | 18.8 µM
74 | Fc1cccc(CN2[C@@H]3CNC[C@H]2C3c2ccc(-c3cccc(F)c3)cc2)c1 (stereo not given in full) | 28 µM
75 | O=C(Nc1cccc(F)c1)N1CCCCN2[C@H](CO)[C@H](c3ccc(C#CC4CC4)cc3)[C@H]2C1 | 47.6 µM
76 | O=C(C[C@H]1CC[C@@H]2[C@H](COC[C@H](O)CN2C(=O)Nc2ccc(C(F)(F)F)cc2)O1)NC1Cc2ccccc2C1 | 36.6 µM
77 | O=C(c1cccc(F)c1)N1CC[C@H]2[C@H](CO)Nc3ccc(-c4cccc(F)c4)cc3[C@H]21 | 124 µM
78 | Cc1ccccc1-c1ccc([C@@H]2[C@H](CO)N3CCCCN(C(=O)Nc4ccc(F)cc4)C[C@@H]23)cc1 | 13.9 µM
79 | OC[C@H]1[C@@H](c2ccc(-c3ccc(F)cc3)cc2)[C@@H]2CN(CCC(F)(F)F)CCCCN12 | 72.8 µM
80 | O=C(NC[C@@H]1N[C@@H](CO)[C@H]1c1ccc(C2=CCCCC2)cc1)c1ccccc1 | 65.8 µM
81 | O=C(Nc1ccc(F)cc1)N1C[C@@H]2N[C@H](C1)C2c1ccc(/C=C/c2ccccc2)cc1 (stereo not given in full) | 5.52 µM and 10 µM
82 | OC[C@H]1[C@H](c2ccc(C#CC3CCCC3)cc2)[C@H]2CN(CCC(F)(F)F)CCCCN21 | 16.8 µM
83 | COc1cccc(-c2ccc3c(c2)[C@H]2[C@H](CCN2Cc2ccccc2OC)[C@H](CO)N3)c1 | 56.5 µM
84 | CCNC(=O)C[C@@H]1CC[C@H]2[C@@H](COC[C@@H](O)CN2C(=O)Nc2ccc(C(F)(F)F)cc2)O1 | 12.2 µM
85 | CC(C)CC#Cc1ccc([C@H]2[C@@H](CO)N3CCCCN(C(=O)Nc4ccccc4)C[C@H]23)cc1 | 12.8 µM
